How the values were obtained:
[1] = system: Aβ40 in conditioned medium of cells stably expressing Amyloid Precursor Protein (APP); assay: In vitro BACE-1 cell-based assay (Aβ40 sandwich ELISA); details: read-out: IC50 IP (μM) BACE1 cell
Summary of the method: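 APP-expressing cells treated 24 h at 37 °C with compound in 10-point dose response (top 100 μM or 10 μM, 0.1% DMSO final). Secreted Aβ40 in conditioned medium quantified by sandwich ELISA (pAb40 capture, biotinylated 6E10 detection, time-resolved europium fluorescence); IC50 from percent inhibition versus concentration.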

human recombinant BACE1 = human recombinant BACE1 (Homo sapiens (Human), UniProt P56817); assay: In vitro enzymatic BACE1 FRET assay; assay type: biochemical; details: read-out: IC50 IP (μM) BACE1 enzyme
Sequence of human recombinant BACE1 (P56817 46-501): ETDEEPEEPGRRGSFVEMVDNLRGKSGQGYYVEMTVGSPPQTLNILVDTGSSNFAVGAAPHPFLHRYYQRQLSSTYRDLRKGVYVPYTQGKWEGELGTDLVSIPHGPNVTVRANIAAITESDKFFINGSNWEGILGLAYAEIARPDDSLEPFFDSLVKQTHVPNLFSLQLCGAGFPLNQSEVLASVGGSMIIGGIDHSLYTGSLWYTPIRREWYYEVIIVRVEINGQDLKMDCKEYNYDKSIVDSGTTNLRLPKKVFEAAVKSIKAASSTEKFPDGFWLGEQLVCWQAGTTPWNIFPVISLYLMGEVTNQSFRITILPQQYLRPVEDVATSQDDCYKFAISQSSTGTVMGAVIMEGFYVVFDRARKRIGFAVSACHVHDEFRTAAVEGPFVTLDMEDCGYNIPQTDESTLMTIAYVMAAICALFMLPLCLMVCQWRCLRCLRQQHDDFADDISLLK
Summary of the method: (§1)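 Protease purified by Ni-NTA chromatography; start with FRET substrate (50 nM); incubate 1 h; quench with Tris to neutral pH; read fluorescence ex 488 / em 590 nm.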

human recombinant BACE2 = human recombinant BACE2 (Homo sapiens (Human), UniProt Q9Y5Z0); assay: In vitro enzymatic BACE2 FRET assay; assay type: biochemical; details: read-out: IC50 IP (μM) BACE2 enzyme
Sequence of human recombinant BACE2 (Q9Y5Z0 63-518): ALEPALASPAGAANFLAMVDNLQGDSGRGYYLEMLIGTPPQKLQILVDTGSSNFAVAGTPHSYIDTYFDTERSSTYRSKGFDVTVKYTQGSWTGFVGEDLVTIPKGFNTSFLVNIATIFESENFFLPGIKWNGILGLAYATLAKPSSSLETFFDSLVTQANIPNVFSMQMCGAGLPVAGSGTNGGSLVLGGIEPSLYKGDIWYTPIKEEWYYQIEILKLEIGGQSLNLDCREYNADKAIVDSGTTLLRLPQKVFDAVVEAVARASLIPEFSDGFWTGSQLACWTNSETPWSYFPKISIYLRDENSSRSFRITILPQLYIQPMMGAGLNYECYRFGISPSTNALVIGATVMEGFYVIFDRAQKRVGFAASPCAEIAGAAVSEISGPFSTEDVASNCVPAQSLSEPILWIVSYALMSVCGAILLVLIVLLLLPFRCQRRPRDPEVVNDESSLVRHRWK
Summary of the method: as §1

Recombinant Cat D = Recombinant Cat D (Homo sapiens (Human), UniProt P07339); assay: In vitro enzymatic Cathepsin D (Cat D) FRET assay; assay type: biochemical; details: read-out: IC50 IP (μM) CatD
Sequence of Recombinant Cat D (P07339 65-412): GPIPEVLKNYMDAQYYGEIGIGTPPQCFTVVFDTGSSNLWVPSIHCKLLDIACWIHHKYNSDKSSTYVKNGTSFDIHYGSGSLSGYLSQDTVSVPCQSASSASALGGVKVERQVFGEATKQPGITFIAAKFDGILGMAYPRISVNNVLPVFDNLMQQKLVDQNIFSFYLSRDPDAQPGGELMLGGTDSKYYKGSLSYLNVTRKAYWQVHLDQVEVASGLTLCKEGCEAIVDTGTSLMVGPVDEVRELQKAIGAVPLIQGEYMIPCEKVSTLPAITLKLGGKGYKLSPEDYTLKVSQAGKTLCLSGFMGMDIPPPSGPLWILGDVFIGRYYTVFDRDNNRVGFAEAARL
Summary of the method: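 Fluorescence at 500 nm excitation and 580 nm emission reports cleavage of a quenched fluorophore–quencher peptide (20 nM) by CHO-expressed Cat D. Reactions ran one hour in 0.05 M citrate pH 3.5, 5 mM CHAPS, 10% DMSO final before a Tris stop raised pH to neutrality.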

IC50 [1] | IC50 (human recombinant BACE1) | IC50 (human recombinant BACE2) | IC50 (Recombinant Cat D) | SMILES
0.0309 µM | 0.0032 µM | 0.0669 µM | > 400 µM | COC[C@H](C)Oc1cnc(C(=O)Nc2cc(F)c(F)c([C@@]3(C)N=C(N)S[C@@]4(C#N)C[C@H]43)c2)cn1 [Example 1010, N-(3-((1S,5S,6S)-3-amino-1-cyano-5-methyl-2-thia-4-azabicyclo[4.1.0]hept-3-en-5-yl)-4,5-difluorophenyl)-5-(((S)-1-methoxypropan-2-yl)oxy)pyrazine-2-carboxamide]
0.00353 µM | 0.000465 µM | 0.00908 µM | 741 µM | C#C[C@H](C)Oc1cnc(C(=O)Nc2cc(F)c(F)c([C@@]3(C)N=C(N)S[C@@]4(C#N)C[C@H]43)c2)cn1 [Example 1011, N-(3-((1S,5S,6S)-3-amino-1-cyano-5-methyl-2-thia-4-azabicyclo[4.1.0]hept-3-en-5-yl)-4,5-difluorophenyl)-5-(((1S)-1-methyl-2-propyn-1-yl)oxy)-2-pyrazinecarboxamide]
0.111 µM | 0.00399 µM | 0.095 µM | > 400 µM | C[C@]1(c2cc(NC(=O)c3ccc(OCC(F)(F)F)cn3)cc(F)c2F)N=C(N)S[C@@]2(C#N)C[C@H]21 [Example 1012, N-(3-((1S,5S,6S)-3-amino-1-cyano-5-methyl-2-thia-4-azabicyclo[4.1.0]hept-3-en-5-yl)-4,5-difluorophenyl)-5-(2,2,2-trifluoroethoxy)-2-pyridinecarboxamide]
0.00144 µM | 0.00139 µM | 0.0541 µM | 959 µM | COC[C@]12C[C@H]1[C@@](C)(c1cc(NC(=O)c3cnc(OCc4noc(C)n4)cn3)cc(F)c1F)N=C(N)S2 [Example 1013, N-(3-((1S,5S,6S)-3-amino-1-(methoxymethyl)-5-methyl-2-thia-4-azabicyclo[4.1.0]hept-3-en-5-yl)-4,5-difluorophenyl)-5-((5-methyl-1,2,4-oxadiazol-3-yl)methoxy)-2-pyrazinecarboxamide]
0.00289 µM | 0.000879 µM | 0.192 µM | 2560 µM | COC[C@]12C[C@H]1[C@@](C)(c1cc(NC(=O)c3cnc(OCc4nc(C)no4)cn3)cc(F)c1F)N=C(N)S2 [Example 1014, N-(3-((1S,5S,6S)-3-amino-1-(methoxymethyl)-5-methyl-2-thia-4-azabicyclo[4.1.0]hept-3-en-5-yl)-4,5-difluorophenyl)-5-((3-methyl-1,2,4-oxadiazol-5-yl)methoxy)-2-pyrazinecarboxamide]
0.00686 µM | 0.00497 µM | 0.185 µM | > 400 µM | Cc1cc(OCC(F)(F)F)cnc1C(=O)Nc1cc(F)c(F)c([C@@]2(C)N=C(N)S[C@@]3(C#N)C[C@H]32)c1 [Example 1015, N-(3-((1S,5S,6S)-3-amino-1-cyano-5-methyl-2-thia-4-azabicyclo[4.1.0]hept-3-en-5-yl)-4,5-difluorophenyl)-3-methyl-5-(2,2,2-trifluoroethoxy)-2-pyridinecarboxamide]
0.0119 µM | 0.00104 µM | 0.00764 µM | > 400 µM | C#CCOc1cnc(C(=O)Nc2cc(F)c(F)c([C@@]3(C)N=C(N)S[C@@]4(C#N)C[C@H]43)c2)c(C)c1 [Example 1016, N-(3-((1S,5S,6S)-3-amino-1-cyano-5-methyl-2-thia-4-azabicyclo[4.1.0]hept-3-en-5-yl)-4,5-difluorophenyl)-3-methyl-5-(2-propyn-1-yloxy)-2-pyridinecarboxamide]
0.000106 µM | 0.000266 µM | 0.00982 µM | 22.5 µM | C#CCOc1cnc(C(=O)Nc2ccc(F)c([C@@]3(C)N=C(N)S[C@@]4(C(=O)NCC)C[C@H]43)c2)cn1 [Example 1017, (1S,5S,6S)-3-amino-N-ethyl-5-(2-fluoro-5-(5-(prop-2-yn-1-yloxy)pyrazine-2-carboxamido)phenyl)-5-methyl-2-thia-4-azabicyclo[4.1.0]hept-3-ene-1-carboxamide]
0.00113 µM | 0.00116 µM | 0.00651 µM | 211 µM | CC(C)(CF)NC(=O)[C@]12C[C@H]1[C@@](C)(c1cc(NC(=O)c3ccc(C#N)cn3)ccc1F)N=C(N)S2 [Example 1018, (1S,5S,6S)-3-amino-5-(5-(5-cyanopicolinamido)-2-fluorophenyl)-N-(1-fluoro-2-methylpropan-2-yl)-5-methyl-2-thia-4-azabicyclo[4.1.0]hept-3-ene-1-carboxamide]
0.00109 µM | 0.000937 µM | 0.073 µM | 271 µM | C#C[C@H](C)Oc1cnc(C(=O)Nc2ccc(F)c([C@@]3(C)N=C(N)S[C@@]4(C(=O)NC(C)(C)CF)C[C@H]43)c2)cn1 [Example 1019, (1S,5S,6S)-3-amino-5-(5-(5-((S)-but-3-yn-2-yloxy)pyrazine-2-carboxamido)-2-fluorophenyl)-N-(1-fluoro-2-methylpropan-2-yl)-5-methyl-2-thia-4-azabicyclo[4.1.0]hept-3-ene-1-carboxamide]
0.0248 µM | 0.00118 µM | 0.0998 µM | 783 µM | COC[C@]12C[C@H]1[C@@](C)(c1cc(NC(=O)c3cnc(OCC4CCC4)cn3)cc(F)c1F)N=C(N)S2 [Example 1020, N-(3-((1S,5S,6S)-3-amino-1-(methoxymethyl)-5-methyl-2-thia-4-azabicyclo[4.1.0]hept-3-en-5-yl)-4,5-difluorophenyl)-5-(cyclobutylmethoxy)pyrazine-2-carboxamide]
0.0331 µM | 0.00572 µM | 0.579 µM | > 400 µM | COC[C@]12C[C@H]1[C@@](C)(c1cc(NC(=O)c3cnc(OCC4COC4)cn3)cc(F)c1F)N=C(N)S2 [Example 1022, N-(3-((1S,5S,6S)-3-amino-1-(methoxymethyl)-5-methyl-2-thia-4-azabicyclo[4.1.0]hept-3-en-5-yl)-4,5-difluorophenyl)-5-(3-oxetanylmethoxy)-2-pyrazinecarboxamide]
0.0135 µM | 0.00319 µM | 0.204 µM | 1360 µM | COC[C@]12C[C@H]1[C@@](C)(c1cc(NC(=O)c3cnc(OCC(C)OC)cn3)cc(F)c1F)N=C(N)S2 (stereo partly drawn) [Example 1023, N-(3-((1S,5S,6S)-3-amino-1-(methoxymethyl)-5-methyl-2-thia-4-azabicyclo[4.1.0]hept-3-en-5-yl)-4,5-difluorophenyl)-5-(2-methoxypropoxy)pyrazine-2-carboxamide]
0.0222 µM | 0.00214 µM | 0.313 µM | 884 µM | COC[C@H](C)Oc1cnc(C(=O)Nc2cc(F)c(F)c([C@@]3(C)N=C(N)S[C@@]4(COC)C[C@H]43)c2)cn1 [Example 1024, N-(3-((1S,5S,6S)-3-amino-1-(methoxymethyl)-5-methyl-2-thia-4-azabicyclo[4.1.0]hept-3-en-5-yl)-4,5-difluorophenyl)-5-((1S)-2-methoxy-1-methylethoxy)-2-pyrazinecarboxamide]
0.0142 µM | 0.00169 µM | 0.13 µM | 1700 µM | COC[C@]12C[C@H]1[C@@](C)(c1cc(NC(=O)c3cnc(OCC(F)F)cn3)cc(F)c1F)N=C(N)S2 [Example 1025, N-(3-((1S,5S,6S)-3-amino-1-(methoxymethyl)-5-methyl-2-thia-4-azabicyclo[4.1.0]hept-3-en-5-yl)-4,5-difluorophenyl)-5-(2,2-difluoroethoxy)-2-pyrazinecarboxamide]
0.0936 µM | 0.00496 µM | 0.115 µM | 475 µM | COC[C@]12C[C@H]1[C@@](C)(c1cc(NC(=O)c3cnc(OCC4CC(F)(F)C4)cn3)cc(F)c1F)N=C(N)S2 [Example 1026, N-(3-((1S,5S,6S)-3-amino-1-(methoxymethyl)-5-methyl-2-thia-4-azabicyclo[4.1.0]hept-3-en-5-yl)-4,5-difluorophenyl)-5-((3,3-difluorocyclobutyl)methoxy)-2-pyrazinecarboxamide]
0.136 µM | 0.0196 µM | 0.0565 µM | 981 µM | COC[C@]12C[C@H]1[C@@](C)(c1cc(NC(=O)c3c[nH]c(=O)cn3)cc(F)c1F)N=C(N)S2 [Example 1027, N-(3-((1S,5S,6S)-3-amino-1-(methoxymethyl)-5-methyl-2-thia-4-azabicyclo[4.1.0]hept-3-en-5-yl)-4,5-difluorophenyl)-5-oxo-4,5-dihydro-2-pyrazinecarboxamide]
0.0293 µM | 0.00195 µM | 0.226 µM | 135 µM | COC[C@]12C[C@H]1[C@@](C)(c1cc(NC(=O)c3cnc(OCC(C)C)cn3)cc(F)c1F)N=C(N)S2 [Example 1028, N-(3-((1S,5S,6S)-3-amino-1-(methoxymethyl)-5-methyl-2-thia-4-azabicyclo[4.1.0]hept-3-en-5-yl)-4,5-difluorophenyl)-5-(2-methylpropoxy)-2-pyrazinecarboxamide]
0.0541 µM | 0.00741 µM | 0.459 µM | 1140 µM | COC[C@]12C[C@H]1[C@@](C)(c1cc(NC(=O)c3cnc(OCC4CCO4)cn3)cc(F)c1F)N=C(N)S2 (stereo partly drawn) [Example 1029, N-(3-((1S,5S,6S)-3-amino-1-(methoxymethyl)-5-methyl-2-thia-4-azabicyclo[4.1.0]hept-3-en-5-yl)-4,5-difluorophenyl)-5-(oxetan-2-ylmethoxy)pyrazine-2-carboxamide]
